# Values quoted from earlier work, collected in PubChem BioAssay AID1259410 (Chemical Carcinogenesis Research Information System (CCRIS), 2018).
# Tested on: rodent tumor promotion studies, tumor incidence
# Test: CCRIS tumor promotion studies
# Conditions: Doses [Promoter]: 0, Doses [Promoter]: 0
Compound,"outcome (Carcinogen: 1-Methyl-1-nitrosourea, 684-93-5, Doses [Carcinogen]: 50 mg/lg once 30 days after initial silymarin dose, 0.03, 0.1, 0.3, 1% (w/w) in diet for 140 d beginning at 21 d of age, 0.03, 0.1, 0.3, 1% (w/w) in diet for 140 d beginning at 21 d of age, Route [Carcinogen]: Intraperitoneal, Route [Promoter]: Oral, Species: Rat, Strain/Sex: Sprague-Dawley/Female (30/27), (30/25), (30/27), (30/23), Strain/Sex: Sprague-Dawley/Female (30/27), (30/25), (30/27), (30/23))","outcome (Carcinogen: DIETHYLNITROSAMINE, 55-18-5, N-BUTYL-N-(4-HYDROXYBUTYL)NITROSAMINE, 3817-11-6, Carcinogen: DIETHYLNITROSAMINE, 55-18-5, N-BUTYL-N-(4-HYDROXYBUTYL)NITROSAMINE, 3817-11-6, Doses [Carcinogen]: 200 MG/KG DEN ONCE THEN 0.05% BBN IN DRINKING WATER FOR 4 WK, 0.1% IN DIET FOR 32 WKS BEGINNING 3 D POST CARCINOGEN TREATMENT (STUDY DURATION:36 WK), Route [Carcinogen]: INTRAPERITONEAL, ORAL, Route [Promoter]: ORAL, Species: RAT, Strain/Sex: F344/MALE)"
COc1cc([C@@H]2Oc3cc([C@H]4Oc5cc(O)cc(O)c5C(=O)[C@@H]4O)ccc3O[C@H]2CO)ccc1O,mammary gland: tumors. silymarin demonstrated a slight enhancement of mammary ca,
S=C=NCCc1ccccc1,,urinary bladder: carcinoma
